Entries after “also recorded” stand apart in the source; their conditions may differ.
How the values were obtained:
[1] = system: Human epidermal keratinocyte cells (HaCaT); test: MTT assay, cell viability of HaCaT cells; assay type: cell-based; conditions: after 48 h and 72 h of cultivation, versus control without DMG, FIG. 1
Experimental: (§1) 1. As part of an in vitro study, the effect of Na-dimethylglycinate was examined in a pH range from […] in a cell culture model with human horn-forming keratinocyte cells. For this purpose, HaCaT cells were cultured for 1, 3, 5, and 7 days in DMEM medium (including fetal calf serum and an antibiotic-antimycotic mix) and, among other things, the viability, proliferation and migration of the cells were determined using suitable measurement methods, and the expression of the growth factors relevant for cell growth was measured.
For this measurement, a so-called MTT assay was used to determine cellular metabolic activity as an indicator of cell viability and cytotoxicity. This colorimetric assay is based on the reduction of a yellow tetrazolium salt (3-(4,5-dimethylthiazol-2-yl)-2,5-diphenyltetrazolium bromide or MTT) to purple formazan crystals by metabolically active cells.
Human epidermal keratinocyte cells (HaCaT) were seeded in a 96-well plate at a cell density of 5,000 cells/well and cultured in medium (DMEM with 10% FBS, 1% penicillin-streptomycin, 0.5% fungizone). […]
Cell viability was determined using the MTT assay. The absorption was measured in quadruplicate and normalized to the control at 24 hours. […]

VEGF = test: Gene expression of VEGF by qRT-PCR in HaCaT cells; assay type: cell-based, human; conditions: after 24 hours of cultivation, normalized to GAPDH, versus control without DMG, FIG. 4
Experimental: VEGF (Vascular Endothelial Growth Factor) promotes the growth and formation of new blood and lymphatic vessels. Gene expression was measured using a standard method known as quantitative real-time PCR (qRT-PCR).
Human epidermal keratinocyte cells (HaCaT) were seeded in a 6-well plate at a cell density of 140,000 cells/well and cultured in medium (DMEM with 10% FBS, 1% penicillin-streptomycin, 0.5% fungizone) at 37° C. and 5% by volume CO2. The next day, the cell culture medium without (control) or with the active substance concentrations already present in each case was changed, and the cells were harvested after 24 h. Gene expression was measured using qRT-PCR based on studies previously published in B. V. Diaz, M.-C. Lenoir, A. Ladoux, C. Frelin, M. Demarchez, S. Michel, Journal of Biological Chemistry 2000, 275, 642-650.
The relative gene expression determined by qRT-PCR (triple determination, normalized to the respective gene expression of a constitutively expressed gene; GAPDH—glyceraldehyde-3-phosphate dehydrogenase) of VEGF is shown. Shown is the mean value with standard deviation.

[2] = system: Human epidermal keratinocyte cells (HaCaT); test: CyQUANT assay, proliferation of HaCaT cells; assay type: cell-based; conditions: after 48 h and 72 h of cultivation, versus control without DMG, FIG. 2
Experimental: as §1
A so-called CyQUANT assay was carried out to measure the proliferation. In this fluorescence-based assay, the fluorescent dye used binds to DNA (deoxyribonucleic acid), with the content of cellular DNA being a direct measure of the number of cells in a sample.
Human epidermal keratinocyte cells (HaCaT) were seeded in a 96-well plate at a cell density of 5,000 cells/well and cultured in medium (DMEM with 10% FBS, 1% penicillin-streptomycin, 0.5% fungizone). The next day and after a further 24 h as well as 48 h and 72 h of cultivation at 37° C. and 5% by volume CO2, the cell culture medium without (control) or with the active ingredient concentrations already present was changed. […]
Cell proliferation was determined using the CyQUANT assay. The fluorescence was measured in triplicate and normalized to the control at 24 hours. […]

HaCaT cells = test: Wound healing assay, cell migration; assay type: cell-based, human; conditions: images after 16 h, 20 h and 24 h, different DMG concentrations, compared to controls without DMG; FIG. 3
Experimental: as §1
A so-called wound healing assay was carried out to measure migration, based on previously published studies in T. Kawabata, T. Otsuka, K. Fujita, G. Sakai, R. Matsushima-Nishiwaki, O. Kozawa, H. Tokuda, International Journal of Molecular Medicine 2018, 42, 3149-3156. The principle is based on measuring the migration of cells to a cultivation surface that has not yet been colonized over time. […]
The wound was created at time 0 h and images were taken after 16 h, 20 h and 24 h of cultivation. Based on the image recordings, the cultivation surface, which was not yet colonized with cells, was determined using the ImageJ software. The measured values are normalized to the point in time 0 h (maximum size of the wound) and given in %.

**Q.** How did the “cell viability (MTT assay, absorption normalized to the control at 24 hours)” value [1] turn out when `CN(C)CC(=O)[O-].[Na+]` [DMG, sodium dimethylglycinate] was run?
**A.** The value was “clear increase”.

**Q.** And the “relative gene expression of VEGF” value (VEGF)?
**A.** Its value is “significant increase; also recorded: significantly increased”.

**Q.** What about the “cell proliferation (CyQUANT assay, fluorescence normalized to the control at 24 hours)” value [2] of the same compound?
**A.** Its value is “clear increase”.

**Q.** What about the “migration or wound closure” value (HaCaT cells) of the same compound?
**A.** Its value is “significantly faster”.
